US11667602B2, “Compounds and their use” (AstraZeneca AB, priority 2020, dated 2023)
Converted amounts (≈) assume the structure as drawn.

Legend:
human RXFP1 = target: T1, human RXFP1 (Homo sapiens, UniProt Q9HBX9); test: RXFP1 Hu cAMP (Test A); format: cell-based; design: expressed in transfected cells; host or cells: Jump-In T-REx CHO-K1 cells (ThermoFisher), induced with 10 ng/ml doxycycline for 24 h; conditions: RXFP1 Hu cAMP; for EC50: read-out: Test A EC50
T1 sequence (Q9HBX9 1-757): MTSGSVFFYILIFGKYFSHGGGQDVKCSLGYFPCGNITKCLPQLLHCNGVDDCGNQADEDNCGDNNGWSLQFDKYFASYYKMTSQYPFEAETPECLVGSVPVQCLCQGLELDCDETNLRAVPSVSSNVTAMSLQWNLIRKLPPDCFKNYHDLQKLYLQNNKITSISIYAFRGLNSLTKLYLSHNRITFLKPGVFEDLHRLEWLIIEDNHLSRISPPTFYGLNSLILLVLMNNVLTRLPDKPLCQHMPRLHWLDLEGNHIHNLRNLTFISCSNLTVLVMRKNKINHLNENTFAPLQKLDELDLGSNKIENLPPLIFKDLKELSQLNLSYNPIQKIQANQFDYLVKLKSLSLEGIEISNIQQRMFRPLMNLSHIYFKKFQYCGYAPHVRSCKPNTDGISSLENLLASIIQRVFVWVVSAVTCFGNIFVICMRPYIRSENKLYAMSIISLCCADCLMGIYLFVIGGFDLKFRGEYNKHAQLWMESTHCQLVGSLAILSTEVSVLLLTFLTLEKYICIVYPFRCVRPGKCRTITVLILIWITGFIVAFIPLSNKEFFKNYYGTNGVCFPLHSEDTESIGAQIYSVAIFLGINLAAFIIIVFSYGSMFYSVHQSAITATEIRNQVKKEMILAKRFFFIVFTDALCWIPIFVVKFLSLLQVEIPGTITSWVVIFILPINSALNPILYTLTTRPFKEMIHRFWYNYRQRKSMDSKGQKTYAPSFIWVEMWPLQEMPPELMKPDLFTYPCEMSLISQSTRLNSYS
Procedure, shortened: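 Competitive HTRF cAMP readout (2 h, room temperature) in CHO-K1 cells stably expressing human RXFP1, induced with 10 ng/ml doxycycline for 24 h; IBMX 0.5 mM final.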

[1] = Human Plasma Protein Binding (Test B); format: in vitro ADME; conditions: fraction unbound (fu)
Procedure, shortened: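 Human plasma protein binding run per the published Wernevik et al. (2020) integrated DMPK panel protocol. Values are fraction unbound (fu, % free); repeat runs averaged arithmetically.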

Solubility (Test F) = format: physicochemical; conditions: arithmetic mean if run multiple times
Experimental: The assay was conducted according to the Solubility Assay described in pages 164-167 of Wernevik, J. et al., “A Fully Integrated Assay Panel for Early Drug Metabolism and Pharmacokinetics Profiling”, Assay and Drug Development Technologies, 2020, 18(4), 157-179. Data are reported in Table 36 as solubility ([…]. Where the assay was run multiple times for the same compound, the arithmetic mean is reported.

[2] = Human Liver Microsomal Stability (Test C); format: in vitro ADME; conditions: human, liver microsomes
Procedure, shortened: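 Human liver microsome incubation per the Wernevik et al. integrated DMPK panel protocol. Intrinsic clearance reported as CLint in μl/min/mg protein, averaged arithmetically over repeat runs.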

[3] = Human Hepatocyte Stability (Test D); format: in vitro ADME; conditions: human, cryopreserved pooled human hepatocytes (LiverPool 10-Donor), geometric mean if run multiple times
Procedure, shortened: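 Pooled 10-donor cryopreserved human hepatocytes (≥80% viable) in L-15 medium at 0.25×10^6 cells per 0.25 mL well. Compound added from 100 μM acetonitrile solution; incubated at 37 °C with shaking, acetonitrile-quenched, LC-MS analysed. Clint (μL/min/10^6 cells) from ln % parent vs time slope; geometric mean of repeat runs.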

[4] = Rat Hepatocyte Stability (Test E); format: in vitro ADME; conditions: rat, hepatocytes, geometric mean if run multiple times
Procedure, shortened: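 Run per the published AstraZeneca-type rat hepatocyte stability protocol (Wernevik et al. panel). Values are mean intrinsic clearance, Clint in μl/min/10^6 cells; geometric mean used for repeated runs.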

Row | SMILES | Test A Sinf (human RXFP1) | EC50 (human RXFP1) | Test B Human Plasma Protein Binding (% free) [1] | solubility (Solubility (Test F)) | microsomal CLint [2] | hepatocyte CLint at 1 µM [3] | hepatocyte CLint [4]
1 | CC(C)Oc1cc(F)c(O[C@H]2CC[C@@](CO)(C(=O)O)CC2)cc1C(=O)N[C@@H]1[C@H]2CC[C@H](C2)[C@@H]1C(=O)NCC1(C)CCC1 [Example 486, (1S,4s)-4-(2-Fluoro-4-isopropoxy-5-(((1S,2R,3S,4R)-3-(((1-methylcyclobutyl)methyl)carbamoyl)bicyclo[2.2.1]heptan-2-yl)carbamoyl)phenoxy)-1-(hydroxymethyl)cyclohexane-1-carboxylic acid] | 107% | 7.6 nM | 6.8 % free | 950 µM (≈ 559 µg/mL) | 35 µL/min/mg | 22 µL/min/1e6 cells | 28 µL/min/1e6 cells
2 | COc1cc(F)c(O[C@H]2CC[C@@H](C(=O)O)CC2)cc1C(=O)N[C@H]1[C@@H](C(=O)Nc2ccc(F)c(S(F)(F)(F)(F)F)c2)[C@@H]2C=C[C@H]1C2 [Example 488, (1S,4s)-4-(2-fluoro-5-(((1R,2R,3S,4S)-3-((4-fluoro-3-(pentafluoro-λ6-sulfaneyl)phenyl)carbamoyl)bicyclo[2.2.1]hept-5-en-2-yl)carbamoyl)-4-methoxyphenoxy)cyclohexane-1-carboxylic acid] | 115% | < 3.6 nM | 0.13 % free | 1000 µM (≈ 667 µg/mL) | 23 µL/min/mg | 12 µL/min/1e6 cells | 22 µL/min/1e6 cells
3 | COc1cc(F)c(O[C@H]2CC[C@@H](C(=O)O)CC2)cc1C(=O)N[C@@H]1CCC[C@@H]1C(=O)Nc1cccc(S(=O)(=O)C(F)(F)F)c1 [Example 490] | 127% | 300 nM | 1.9 % free | 940 µM (≈ 593 µg/mL) | 30 µL/min/mg | 17 µL/min/1e6 cells | 16 µL/min/1e6 cells
4 | COc1cc(F)c(O[C@H]2CC[C@@H](C(=O)O)CC2)cc1C(=O)N[C@@H]1[C@H]2CC[C@H](C2)[C@@H]1C(=O)Nc1cccc(S(=O)(=O)C(F)(F)F)c1 [Example 491] | 102% | 42 nM | 2.1 % free | 550 µM (≈ 361 µg/mL) | 42 µL/min/mg | 15 µL/min/1e6 cells | 23 µL/min/1e6 cells
5 | COc1cc(F)c(O[C@H]2CC[C@@H](C(=O)O)CC2)cc1C(=O)N[C@@H]1CCC[C@@H]1C(=O)Nc1ccc(F)c(C(F)(F)F)c1 [Example 492] | 106% | 160 nM | 1.8 % free | 1000 µM (≈ 585 µg/mL) | 36 µL/min/mg | 18 µL/min/1e6 cells | 19 µL/min/1e6 cells
6 | COc1cc(F)c(O[C@H]2CC[C@@H](C(=O)O)CC2)cc1C(=O)N[C@H]1[C@@H](C(=O)Nc2ccc(OC)c(S(=O)(=O)C(F)(F)F)c2)[C@@H]2C=C[C@H]1C2 [Example 497, (1S,4s)-4-(2-Fluoro-4-methoxy-5-(((1R,2R,3S,4S)-3-((4-methoxy-3-((trifluoromethyl)sulfonyl)phenyl)carbamoyl)bicyclo[2.2.1]hept-5-en-2-yl)carbamoyl)phenoxy)cyclohexane-1-carboxylic acid] | 108% | 320 nM | 3.3 % free | > 1000 µM | < 3 µL/min/mg | 4.4 µL/min/1e6 cells | 19 µL/min/1e6 cells
7 | COc1cc(F)c(O[C@H]2CC[C@@H](C(N)=O)CC2)cc1C(=O)N[C@H]1[C@@H](C(=O)Nc2ccc(F)c(C(F)(F)F)c2)[C@@H]2C=C[C@H]1C2 [Example 499, (1S,2S,3R,4R)-3-(5-(((1s,4S)-4-Carbamoylcyclohexyl)oxy)-4-fluoro-2-methoxybenzamido)-N-(4-fluoro-3-(trifluoromethyl)phenyl)bicyclo[2.2.1]hept-5-ene-2-carboxamide] | 128% | 100 nM | 0.51 % free | 13 µM (≈ 7.9 µg/mL) | 200 µL/min/mg | 28 µL/min/1e6 cells | 96 µL/min/1e6 cells
8 | COc1cc(F)c(O[C@H]2CC[C@@H](C(N)=O)CC2)cc1C(=O)N[C@@H]1[C@H]2CC[C@H](C2)[C@@H]1C(=O)Nc1ccc(F)c(C(F)(F)F)c1 [Example 500, (1R,2S,3R,4S)-3-(5-(((1s,4S)-4-Carbamoylcyclohexyl)oxy)-4-fluoro-2-methoxybenzamido)-N-(4-fluoro-3-(trifluoromethyl)phenyl)bicyclo[2.2.1]heptane-2-carboxamide] | 110% | 64 nM | 0.44 % free | 8 µM (≈ 4.88 µg/mL) | > 300 µL/min/mg | 45 µL/min/1e6 cells | 98 µL/min/1e6 cells
9 | COc1cc(C#N)c(O[C@H]2CC[C@@](C)(C(=O)O)CC2)cc1C(=O)N[C@@H]1[C@@H]2CC[C@@H](C2)[C@@H]1C(=O)NCC(C)(C)C(F)(F)F [Example 502, (1S,4s)-4-(2-Cyano-4-methoxy-5-(((1R,2R,3S,4S)-3-((3,3,3-trifluoro-2,2-dimethylpropyl)carbamoyl)bicyclo[2.2.1]heptan-2-yl)carbamoyl)phenoxy)-1-methylcyclohexane-1-carboxylic acid] | 106% | 8.5 nM | 4 % free | 910 µM (≈ 540 µg/mL) | < 4.5 µL/min/mg | 5.3 µL/min/1e6 cells | 7.2 µL/min/1e6 cells
10 | COc1cc(F)c(O[C@H]2CC[C@@H](C(=O)O)CC2)cc1C(=O)N[C@@H]1[C@@H]2CC[C@@H](C2)[C@@H]1C(=O)Nc1cccc(S(F)(F)(F)(F)F)c1 [Example 509, (1S,4s)-4-(2-Fluoro-4-methoxy-5-(((1R,2R,3S,4S)-3-((3-(pentafluoro-A6-sulfaneyl)phenyl)carbamoyl)bicyclo[2.2.1]heptan-2-yl)carbamoyl)phenoxy)cyclohexane-1-carboxylic acid] | 125% | 13 nM | <0.070 % free | 1000 µM (≈ 651 µg/mL) | 9.4 µL/min/mg | 5 µL/min/1e6 cells | 7 µL/min/1e6 cells
11 | COc1cc(F)c(O[C@H]2CC[C@@](C)(C(=O)O)CC2)cc1C(=O)N[C@@H]1[C@H]2CC[C@H](C2)[C@@H]1C(=O)N[C@@H]1CCCN(S(=O)(=O)C(F)(F)F)C1 [Example 604] | 105% | 110 nM | 6.7 % free | 10 µM (≈ 6.78 µg/mL) | 110 µL/min/mg | 13 µL/min/1e6 cells | 14 µL/min/1e6 cells
12 | COc1cc(F)c(O[C@H]2CC[C@@](C)(C(=O)O)CC2)cc1C(=O)N[C@@H]1[C@H]2CC[C@H](C2)[C@@H]1C(=O)N[C@@H]1CCN(S(=O)(=O)C(F)(F)F)C1 [Example 605] | 106% | 79 nM | 8.6 % free | 890 µM (≈ 591 µg/mL) | 25 µL/min/mg | 4.3 µL/min/1e6 cells | 12 µL/min/1e6 cells
13 | COc1cc(F)c(O[C@H]2CC[C@@](C)(C(=O)O)CC2)cc1C(=O)N[C@@H]1[C@H]2CC[C@H](C2)[C@@H]1C(=O)NC12CC(F)(C1)C2 [Example 608] | 115% | 75 nM | 3.5 % free | 880 µM (≈ 481 µg/mL) | 20 µL/min/mg | 3.4 µL/min/1e6 cells | 8.2 µL/min/1e6 cells
